Experimental data from article PMC12800093 (Nature Communications, 2025).
Where a SMILES comes first, the peptide text is derived from it. Where no end group is shown, it is not given here. [ ]: non-standard residue; d: D form.

Columns and labels:
[1] = system: nutrient-starved NRP Mtb H37Rv; assay: Kill curves with nutrient-starved non-replicating Mtb; assay type: cell-based, M. tuberculosis
[2] = system: hypoxia-induced NRP Mtb H37Ra; assay type: cell-based, M. tuberculosis
[3] = system: proliferating Mtb (H37Rv) cultures
[4] = Human serum proteolytic stability; assay type: in vitro ADME; conditions: observed during serum proteolysis experiments, 25% v/v human serum
[5] = system: Mtb-secreted proteases (mc^2 6230 supernatant); conditions: proteolytic Mtb (mc^2 6230) supernatant, two weeks (0, 1, 7, 14 d), HPLC; n = 3 technical replicates

Row | Compound | activity under nutrient starvation conditions [1] | activity under hypoxic conditions [2] | incubation time at which regrowth of treated Mtb cultures was permitted [3] | reduction in the first week of exposure [3] | binding to human serum proteins [4] | Stability in the presence of Mtb-secreted proteases [5]
1 | NNC(=O)c1ccncc1 [INH, isoniazid, reference compound] | inactive | inactive | 3 days | ~ 2 log | – | –
2 | CC(C)[C@@H](NC(=O)[C@H](N)Cc1c[nH]c2ccccc12)C(=O)N[C@@H](C(=O)N[C@H](Cc1c[nH]c2ccccc12)C(=O)N[C@H](Cc1c[nH]cn1)C(=O)N[C@H](CCCNC(=N)N)C(=O)N[C@H](CCCNC(=N)N)C(=O)N[C@H](Cc1c[nH]c2ccccc12)C(=O)N[C@H](Cc1c[nH]c2ccccc12)C(=O)N[C@H](Cc1c[nH]cn1)C(=O)N[C@H](Cc1c[nH]c2ccccc12)C(=O)N[C@H](CCCNC(=N)N)C(=O)N[C@H](CCCCN)C(N)=O)C(C)C [MAD1-RI] (H-[dW][dV][dV][dW][dH][dR][dR][dW][dW][dH][dW][dR][dK]-NH2) | – | – | – | – | significant binding | generally remained stable up to two weeks
3 | KRWHWWRRHWVVW-NH2 [MAD1] | – | – | – | – | – | completely proteolyzed after 14 days
